Test results reported in patent US12509438B2, “Pyrazole derivative” (Aptabio Therapeutics Inc., priority 2020, dated 2025).

How the values were obtained:
αSMA [1] = experiment: Expression of αSMA induced by TGF-β1 in ARPE19 cells (immunocytochemistry); type: cell-based, human; conditions: compound 5 μM, TGF-β1 10 ng/ml, FIG. 3a/3b
Text: (§1) In order to confirm whether the synthetic example compound of the present invention affects differentiation of fibroblasts into myofibroblasts, the inhibitory effect of the synthetic example compound for increasing expression of αSMA (a biomarker for confirming differentiation into myofibroblasts) induced by TGF-β1 for HL-60 cells (Korean Cell Line Bank), HFF-1 (human foreskin fibroblast, ATCC), NHLF (normal human lung fibroblast, Lonza), LX-2 (human hepatic stellate cells, Sigma), ARPE19 (human retinal pigment epithelial cell, ATCC), KEL-FIB (Keloid fibroblast, ATCC) cells was to be observed.
Each cell was suspended in a DMEM medium comprising 10% FBS and aliquoted on a 4-well chamber slide (Nunc) at a concentration of 1×10^4 cells/well, and the synthetic example compound and TGF-β1(TGF 131, TGF-β are all same meanings) were treated to prepare cells to be used for confirmation of αSMA expression. […] After performing fixation with 4% paraformaldehyde for 10 minutes and permeabilization using 0.1% Triton x-100 for the cells, the process of treating a primary antibody (anti-αSMA Ab, 1:200, at 4° C. for 16 hours) and a secondary antibody (Alexa-594 conjugated Ab, 1:800, at a room temperature for 1 hour) against αSMA was progressed sequentially, and then the level of expression of αSMA was observed by using a fluorescence microscope. […]

αSMA [2] = experiment: Expression of αSMA induced by TGF-β1 in NHLF cells (immunocytochemistry); type: cell-based, human; conditions: compound 5 μM, TGF-β1 10 ng/ml, FIG. 3a/3b
Text: as §1
(§2) Each cell was suspended in a DMEM medium comprising 10% FBS and aliquoted on a 4-well chamber slide (Nunc) at a concentration of 1×10^4 cells/well, and the synthetic example compound and TGF-β1(TGF 131, TGF-β are all same meanings) were treated to prepare cells to be used for confirmation of αSMA expression. […] After performing fixation with 4% paraformaldehyde for 10 minutes and permeabilization using 0.1% Triton x-100 for the cells, the process of treating a primary antibody (anti-αSMA Ab, 1:200, at 4° C. for 16 hours) and a secondary antibody (Alexa-594 conjugated Ab, 1:800, at a room temperature for 1 hour) against αSMA was progressed sequentially, and then the level of expression of αSMA was observed by using a fluorescence microscope.

collagen type I gene = experiment: Collagen type I gene expression induced by TGF-β1 in KEL-FIB keloid fibroblasts (qRT-PCR); type: cell-based; conditions: KEL-FIB cells; 5 μM or 10 μM compound; 2 ng/ml TGF-β1; 24 or 48 hours
Protocol: (§3) In order to confirm the effect on the process of producing extracellular matrix from keloid fibroblasts of the synthetic example compound, the expression change of an extracellular matrix formation promoting factor, CTGF and a representative extracellular matrix, collagen type I according to treatment of the Synthetic example 3 compound for KEL-FIB (keloid fibroblast) cells was analyzed at a gene level.
(§4) The KEL-FIB cell line was adapted in a DMEM comprising 2% FBS for 24 hours and then the Synthetic example 3 compound at a concentration of ? 5 μM or 10 μM was pretreated for 1 hour. For inducing expression of CTGF and collagen type I genes, 2 ng/ml TGF-β1 was treated and mRNA was extracted from the cells after 24 or 48 hours. The presence of mRNA and expression level of CTGF and collagen type 1 genes were confirmed by qRT-PCR (Quantitative real-time PCR).

αSMA [3] = experiment: Expression of αSMA induced by TGF-β1 in LX-2 cells (immunocytochemistry); type: cell-based, human; conditions: compound 5 μM, TGF-β1 10 ng/ml, FIG. 3a/3b
Text: as §1, §2

CTGF gene = CTGF gene expression induced by TGF-β1 in KEL-FIB keloid fibroblasts (qRT-PCR); type: cell-based; conditions: KEL-FIB cells; 5 μM or 10 μM compound; 2 ng/ml TGF-β1; 24 or 48 hours
Protocol: as §3, §4

IL-1β [4] = experiment: Expression of IL-1β induced by LPS in LX-2 cells (RT-PCR); type: cell-based, human; conditions: 30 min pretreatment, LPS 6 hours, FIG. 5
Protocol: (§5) After inoculating a 2×10^5 number of cells in a 6 well plate and culturing for 24 hours and then further culturing in a culture solution without serum for 16 hours, the Synthetic example 3 compound was pretreated according to each condition for 30 minutes and inflammation reaction was induced by LPS for 6 hours. The expression of IL-1β was confirmed by using RT-PCR. The total RNA was separated from the cells by using RNeasy mini kit (Qiagen) and from the separated RNA 2 ug, cDNA was synthesized by using PrimeScript™ II 1st strand cDNA synthesis kit (TaKaRa) and then PCR was performed by AccuPower® PCR PreMix (Bioneer) to amplify genes. The sequence for target primers is as follows. IL-1β (forward: 5′-[…]-3′, reverse: 5′-[…]-3′); GAPDH (forward: 5′-[…]-3′, reverse: 5′-[…]-3′); β-actin (forward: 5′-[…]-3′, reverse: 5′-[…]-3′). The PCR product was confirmed by electrophoresis in 1.5% agarose gel.

N27 cells = experiment: ROS production induced by MPP+ in N27 dopaminergic nerve cells (DCF-DA); type: cell-based, rat; conditions: compound 1 μM, 24 hours, FIG. 4
Text: The high ROS level in nerve cells induces oxidized lipids, and this is known as an important element for nerve cell death. In order to confirm the effect of the synthetic example compound on ROS production from dopaminergic nerve cells, ROS production was induced by stimulation of MPP+(1-methyl-4-phenylptridinium) for N27 (rat dopaminergic neural cell, Sigma) cells, and the inhibitory effect of ROS production of the synthetic example compound was observed under this condition.
N27 cells were cultured in a RPMI medium comprising 10% FBS, […], and the cultured cells were aliquoted in a 6 well plate at a concentration of 5×10^3˜6×10^3 cells/well. The ROS production stimuli, MPP+ (1-methyl-4-phenylptridinium) and Synthetic example compound 3 (1 μM) were treated into the cells. In 24 hours after treating the synthetic example compound, by measuring fluorescence of each well using DCF-DA, the ROS production level was confirmed.

IL-1β [5] = experiment: Expression of IL-1β induced by LPS in NHLF cells (RT-PCR); type: cell-based, human; conditions: 30 min pretreatment, LPS 6 hours, FIG. 5
Protocol: as §5

αSMA [6] = experiment: Expression of αSMA induced by TGF-β1 in KEL-FIB cells (immunocytochemistry); type: cell-based; conditions: compound 5 μM, TGF-β1 10 ng/ml, FIG. 3a/3b
Text: as §1, §2

αSMA [7] = experiment: Expression of αSMA induced by TGF-β1 in HFF-1 cells (immunocytochemistry); type: cell-based, human; conditions: compound 5 μM, TGF-β1 10 ng/ml, FIG. 3a/3b
Text: as §1, §2

NHLF cells = experiment: ROS production in NHLF cells (L-012 or DCF-DA); type: cell-based, human; conditions: FIG. 1
Text: (§6) In order to confirm an effect of the synthetic example compounds on ROS production from fibroblasts and specific substrate cells, ROS production was induced by stimulation of PMA (phorbol 12-myristate 13-acetate), TGF-β1, palmitate or high concentration-glucose, or the like for HL-60 cells (Korean Cell Line Bank), NHLF(normal human lung fibroblast, Lonza), LX-2 (human hepatic stellate cells, Sigma), ARPE19 (human retinal pigment epithelial cell, ATCC), KEL-FIB (Keloid fibroblast, ATCC) cells differentiated into neutrophil cells by treatment of DMSO, and the inhibitory effect of ROS production of the synthetic example compounds was observed under this condition.
(§7) NHLF (normal human lung fibroblast, Lonza), LX-2 (human hepatic stellate cells, Sigma), ARPE19 (human retinal pigment epithelial cell, ATCC), KEL-FIB (keloid fibroblast, ATCC) cells were suspended in a culture medium comprising 10% FBS and aliquoted in a 96 well plate, and then cultured under the condition of 5% CO2, 37° C. for 24 hours. The synthetic example compound was pretreated from 30 minutes to 1 hour, and then a ROS stimulus was treated to each well comprising cells and a drug. After additional culturing for 48 hours, the level of ROS production was confirmed by using L-012 or DCF-DA.

LX-2 cells = experiment: ROS production in LX-2 cells (L-012 or DCF-DA); type: cell-based, human; conditions: FIG. 1
Text: as §6, §7

Oc1c2c(nn1-c1ccccn1)CN(Cc1ccccc1)CC2 [Synthetic example 3, 6-benzyl-2-(pyridin-2-yl)-4,5,6,7-tetrahydro-2H-pyrazolo[3,4-c]pyridin-3-ol]
inhibition of increase of expression of αSMA induced by TGF-β1 (αSMA [1]): significantly inhibited | inhibition of increase of expression of αSMA induced by TGF-β1 (αSMA [2]): significantly inhibited | inhibition of expression of the collagen type I gene (collagen type I gene): 75% | inhibition of increase of expression of αSMA induced by TGF-β1 (αSMA [3]): significantly inhibited | inhibition of expression of the CTGF gene (CTGF gene): 76% | inhibition of IL-1β induced by LPS (IL-1β [4]): effectively inhibited in a concentration-dependent manner | inhibition of ROS production induced by MPP+ (N27 cells): inhibiting production of ROS | inhibition of IL-1β induced by LPS (IL-1β [5]): effectively inhibited in a concentration-dependent manner | inhibition of increase of expression of αSMA induced by TGF-β1 (αSMA [6]): significantly inhibited | inhibition of increase of expression of αSMA induced by TGF-β1 (αSMA [7]): significantly inhibited | inhibition of ROS production induced by PMA (NHLF cells): inhibited ROS production | inhibition of ROS production induced by PMA (LX-2 cells): inhibited ROS production
